How the values were obtained:
[1] = system: NQO1 specific enzyme activity in BEAS-2B cells (marker for NRF2 activation); assay: Beas2B NQO1 MTT Assay; type: cell-based; conditions: Homo sapiens, NQO1 specific activity induction, 48 hours with compound
Text: NAD(P)H:quinone oxidoreductase 1 (NQO1), also called DT diaphorase, is a homodimeric FAD-containing enzyme that catalyses obligatory NAD(P)H-dependent two-electron reductions of quinones and protects cells against the toxic and neoplastic effects of free radicals and reactive oxygen species arising from one-electron reductions. The transcription of NQO1 is finely regulated by NRF2, and thus NQO1 activity is a good marker for NRF2 activation. On day one, frozen BEAS-2B cells (ATCC) were thawed in a water bath, counted, and re-suspended at a concentration of 250,000 cells/mL. Fifty microliters of cells were plated in 384 well black clear-bottomed plates. Plates were incubated at 37° C., 5% CO2 overnight. On day two, plates were centrifuged and 50 nL of compound or controls were added to the cells. Plates were then incubated at 37° C., 5% CO2 for 48 hours. On day four, medium was aspirated from the plate and crude cell lysates were made by adding 13 uL of 1× Cell Signaling Technologies lysis buffer with 1 Complete, Mini, EDTA-free Protease Inhibitor Tablet (Roche) for each 10 mL of lysis buffer. After lysis plates were incubated for 20 minutes at room temperature. Two microliters of lysate were removed for use in Cell Titer Glo assay (Promega) and MTT cocktail was prepared (Prochaska et. al. 1998) for measurement of NQO1 activity. Fifty microliters of MTT cocktail was added to each well, plate was centrifuged, and analysed on an Envision plate reader (Perkin Elmer) using Absorbance 570 nm label for 30 minutes. Product formation was measured kinetically and the pEC50 of NQO1 specific activity induction was calculated by plotting the change in absorbance (Delta OD/min) versus the log of compound concentration followed by 3-parameter fitting.
EC50s <1 nM (+++++), EC50s 10 nM-1 nM (++++), EC50s 10-100 nM (+++), EC50s 100 nM-1 μM (++), EC50s 1-10 μM (+), EC50s >10 μM (−), or were not determined (ND).

[2] = target: T1, Keap1 (321-609) Kelch domain / TAMRA-labeled 16mer NRF2 peptide (ETGE motif) (Homo sapiens, UniProt Q14145); assay: NRF2-Keap1 FP Assay; type: binding; conditions: 20 nM Keap1 (321-609), 8 nM Tamra labeled peptide
T1 construct: the Kelch domain (321-609) of Keap1 is used
Text: One model for the NRF2-Keap1 interaction is through two binding sites in the Neh2 domain on NRF2. The two sites are referred to as the DLG binding motif (latch domain, uM affinity) and the ETGE binding motif (hinge domain, nM affinity). The Keap1 protein consists of an N-terminal region (NTR), a broad complex, tramtrack, and brick a'brac domain (BTB), an intervening region (IVR), a double glycine repeat domain (DGR or Kelch), and a C-terminal region. The DLG and ETGE motifs of NRF2's Neh2 domain bind to the Kelch domain of Keap1 at different affinities. In the Keap1 Kelch fluorescence polarization (FP) assay, a TAMRA-labeled 16mer peptide (AFFAQLQLDEETGEFL) containing the ETGE motif of NRF2 and the Kelch domain (321-609) of Keap1 is used. The assay determines if a compound interferes with the binding between Keap1 […] and the TAMRA-labeled peptide. Binding of TAMRA-labeled NRF2 peptide to Keap1 (321-609) results in a high FP signal. If a compound interferes with the binding between the peptide and the protein, it will cause the assay signal to decrease. Thus, assay signal is inversely proportional to binding inhibition.
100 nl of 100× compound dose response curves (serial 3-fold dilutions) in DMSO were stamped using an Echo liquid handling system (Labcyte) into 384-well low volume black assay plates (Greiner, #784076), with DMSO in columns 6 and 18. The top concentration of compound was located in columns 1 and 13. Keap1 (321-609) was diluted to 40 nM (2×) in 1× assay buffer (50 mM Tris, pH 8.0, 100 mM NaCl, 5 mM MgCl2, 1 mM DTT, 2 mM CHAPS, and 0.005% BSA) and 5 ul was added using a Multidrop Combi (Thermo Electron Corporation) equipped with a metal tip dispenser to all wells of the compound plate, except column 18. Column 18 received only 5 ul of assay buffer. Immediately, 5 uL of 16 nM (2×) of Tamra labeled peptide (AFFAQLQLDEETGEFL, 21st Century Biochemicals) was added to all wells of the plate. The plates were spun at 500 rpm for 1 min, incubated for 1 hr at room temperature, and read on an Analyst GT (Molecular Devices) equipped with excitation (530/25 nm) and emission (580/10 nm) filters designed for Tamra probes. A 561 nm dichroic mirror was also used in the Analyst. The final assay concentrations of Keap1 (321-609) and Tamra labeled peptide were 20 nM and 8 nM, respectively. Fluorescence measurements, represented as mP, were used in the transformation of the data. Compound activity was calculated based on percent inhibition, normalized against controls in the assay (Control 1 contains the Tamra peptide and Keap1 (321-609) together (0% response) and control 2 contains the Tamra peptide alone (100% response)). Data analysis was handled using the software package Abase XE (Surrey, United Kingdom. The % inhibition values were calculated by the equation:
100−(100*((compound response−average control 2)/(average control 1−average control2))). For calculation of pIC50s, Abase XE uses a four parameter equation.
IC50s<1 nM (+++++), IC50s 1 nM-10 nM (++++), IC50s 10-100 nM (+++), IC50s 100 nM-1 μM (++), IC50s 1-10 μM (+), IC50s >10 μM (−), or were not determined (ND).

T1 sequence (Q14145 321-609): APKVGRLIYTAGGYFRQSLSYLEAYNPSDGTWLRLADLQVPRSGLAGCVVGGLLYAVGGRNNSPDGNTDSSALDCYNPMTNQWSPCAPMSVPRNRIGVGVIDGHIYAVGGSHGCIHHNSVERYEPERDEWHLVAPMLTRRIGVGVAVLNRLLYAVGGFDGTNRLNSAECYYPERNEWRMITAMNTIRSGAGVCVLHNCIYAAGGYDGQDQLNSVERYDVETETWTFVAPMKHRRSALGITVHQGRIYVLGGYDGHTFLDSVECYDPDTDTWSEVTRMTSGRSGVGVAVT

SMILES	EC50 [1] [nM]	EC50 [2] [nM]
CC[C@H]1Cc2ccc(Br)cc2S(=O)(=O)N(Cc2cccc(-n3ccc(C(=O)O)c3[C@@H]3C[C@H]3c3cn(C)nn3)c2)C1 [Example 9, 1-(3-(((S)-8-bromo-4-ethyl-1,1-dioxido-4,5-dihydrobenzo[f][1,2]thiazepin-2(3H)-yl)methyl)phenyl)-2-((1R,2R)-2-(1-methyl-1H-1,2,3-triazol-4-yl)cyclopropyl)-1H-pyrrole-3-carboxylic acid]	< 1	10 to 100
C[C@H](Oc1cccc(-c2cccc(-n3ccc(C(=O)O)c3[C@H]3C[C@@H]3c3cn(C)nn3)c2)c1)C1CCCCC1 [Example 17, 1-(3′-((S)-1-cyclohexylethoxy)-[1,1′-biphenyl]-3-yl)-2-((1S,2S)-2-(1-methyl-1H-1,2,3-triazol-4-yl)cyclopropyl)-1H-pyrrole-3-carboxylic acid]	10 to 100	10 to 100
CCC[C@@H]1CCCCN1C(=O)c1cccc(-c2cccc(-n3ccc(C(=O)O)c3[C@@H]3C[C@H]3c3cn(C)nn3)c2)c1Br [Example 22]	10 to 100	10 to 100
CCC[C@@H]1CCCCN1C(=O)c1cc(F)cc(-c2cccc(-n3ccc(C(=O)O)c3[C@@H]3C[C@H]3c3cn(C)nn3)c2)c1 [Example 23]	10 to 100	10 to 100
CCC[C@@H]1CCCCN1C(=O)c1cccc(-c2cccc(-n3ccc(C(=O)O)c3[C@@H]3C[C@H]3c3cn(C)nn3)c2)c1C(F)(F)F [Example 24]	1000 to 10000	100 to 1000

Source: patent publication US20200031820A1, “3-CARBOXYLIC ACID PYRROLES AS NRF2 REGULATORS” (GLSXOSMITHKLINE INTELLECTUAL PROPERTY DEVELOPMENT LIMITED, priority 2016, published 2020)
